Data taken from patent US20220002723A1, “METHODS FOR THE TREATMENT OF SMALL ROUND CELL TUMORS” (Board of Regents, The University of Texas System, priority 2018, published 2022).

How the values were obtained:
[1] = tested on: JN-DSRCT cell line; details: JN-DSRCT cells; at high levels of DHT
[2] = tested on: LNCaP prostate cancer cell line; details: LNCaP cells; at high levels of DHT
[3] = tested on: TC-71 Ewing sarcoma cells; details: TC-71 ES cells, lack AR expression

Compound	proliferation on stimulation with AR agonist [1]	proliferation on stimulation with AR agonist [2]	proliferation on stimulation with AR agonist [3]
C[C@]12CC[C@H]3[C@@H](CCC4=CC(=O)CC[C@@]43C)[C@@H]1CC[C@@H]2O [testosterone]	increased proliferation	increased proliferation	no effect
C[C@]12CCC(=O)C[C@@H]1CC[C@@H]1[C@@H]2CC[C@]2(C)[C@@H](O)CC[C@@H]12 [DHT, 5a-dihydrotestosterone]	increased proliferation	increased proliferation	no effect and not
